Source: patent US7745477B2, “Heteroaryl and benzyl amide compounds” (Hoffman-La Roche Inc., priority 2006, dated 2010)

Target: T1, cholesteryl ester transfer protein (CETP) (Homo sapiens, UniProt P11597)
T1 construct: the source of CETP was human lipoprotein-deprived serum (LPDS); from tissue; host or cells: human lipoprotein-deprived serum (LPDS)
T1 sequence (P11597 18-493): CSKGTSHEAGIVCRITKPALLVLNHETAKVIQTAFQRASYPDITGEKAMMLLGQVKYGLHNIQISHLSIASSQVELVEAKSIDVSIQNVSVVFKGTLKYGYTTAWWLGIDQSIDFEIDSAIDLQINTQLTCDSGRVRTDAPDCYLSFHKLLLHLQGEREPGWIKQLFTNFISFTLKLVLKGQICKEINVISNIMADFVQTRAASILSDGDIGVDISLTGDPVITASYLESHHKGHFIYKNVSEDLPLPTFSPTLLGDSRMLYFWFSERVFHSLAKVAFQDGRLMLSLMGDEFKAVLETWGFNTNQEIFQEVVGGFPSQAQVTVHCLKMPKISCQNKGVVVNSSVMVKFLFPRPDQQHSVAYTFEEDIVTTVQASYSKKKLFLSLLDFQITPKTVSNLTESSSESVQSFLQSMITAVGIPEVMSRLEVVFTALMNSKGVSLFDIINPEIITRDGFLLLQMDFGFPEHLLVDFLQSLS
Assay: CETP activity SPA assay in the presence of plasma (source of CETP: human lipoprotein-deprived serum, LPDS)
Type: biochemical
Conditions: CETP from human lipoprotein-deprived serum (LPDS); transfer of radiolabeled cholesteryl ester from HDL donor to biotin-labeled LDL acceptor particles
Method: Activity of CETP inhibitors was determined using a buffer assay system. Partially purified CETP transferred radiolabeled cholesteryl ester from HDL donor particles to biotin-labeled LDL acceptor particles. The reaction was stopped by addition of streptavidin-coupled scintillation proximity assay (SPA) beads. These beads captured the biotinylated acceptor particles and transferred radioactivity was measured. The assay system was purchased and performed according to manufacturer's recommendations (Amersham Biosciences). Inhibitory activity of compounds was determined as percentage of positive control activity containing CETP together with donor and acceptor particles. Serial dilution of compounds was performed in order to determine the IC50 values.
Activity of the compounds was subsequently measured in the presence of plasma using the same assay as described above except that the source of CETP was human lipoprotein-deprived serum (LPDS). Inhibitory activity of compounds was determined as percentage of positive control activity containing all the assay components except compound. Serial dilution of compounds was performed in order to determine the IC50 values.

SMILES | IC50
CCC(C)(C)c1ccc(CN(CCc2ccc(Cl)cc2)C(=O)c2cc(Cl)cc(Cl)c2)cc1 [Compound B108, 3,5-Dichloro-N-[2-(4-chloro-phenyl)-ethyl]-N-[4-(1,1-dimethyl-propyl)-benzyl]-benzamide] | 409 nM
O=C(c1cc(Cl)cc(Cl)c1)N(CCc1ccc(Cl)cc1)Cc1ccc(C(F)(C(F)(F)F)C(F)(F)F)cc1 [Compound B104, 3,5-Dichloro-N-[2-(4-chloro-phenyl)-ethyl]-N-[4-(1,2,2,2-tetrafluoro-1-trifluoromethyl-ethyl)-benzyl]-benzamide] | 1250 nM
CC(C)(C)c1ccc(CN(CCc2ccc(Cl)c(Cl)c2)C(=O)c2cnccc2Cl)cc1 [Compound B3, N-(4-tert-Butyl-benzyl)-4-chloro-N-[2-(3,4-dichloro-phenyl)-ethyl]-nicotinamide] | 66800 nM
